Reference: ChEMBL document CHEMBL4190279 (Eur J Med Chem, 2017)

Assays:
[1] = GPx-like activity of the compound assessed as velocity for H2O2 reduction by measuring oxidation of PhSH to (PhS)2 at 50 uM measured for 180 secs by spectrophotometric analysis; format: functional
Cholinesterase [2] = target: T1, Cholinesterase (Equus caballus, UniProt P81908); assay: Mixed-type inhibition of equine serum BuChE assessed as enzyme-inhibitor complex using p-nitrophenyl butyrate as substrate by Lineweaver-Burk plot analysis
T1 sequence (P81908 whole entry): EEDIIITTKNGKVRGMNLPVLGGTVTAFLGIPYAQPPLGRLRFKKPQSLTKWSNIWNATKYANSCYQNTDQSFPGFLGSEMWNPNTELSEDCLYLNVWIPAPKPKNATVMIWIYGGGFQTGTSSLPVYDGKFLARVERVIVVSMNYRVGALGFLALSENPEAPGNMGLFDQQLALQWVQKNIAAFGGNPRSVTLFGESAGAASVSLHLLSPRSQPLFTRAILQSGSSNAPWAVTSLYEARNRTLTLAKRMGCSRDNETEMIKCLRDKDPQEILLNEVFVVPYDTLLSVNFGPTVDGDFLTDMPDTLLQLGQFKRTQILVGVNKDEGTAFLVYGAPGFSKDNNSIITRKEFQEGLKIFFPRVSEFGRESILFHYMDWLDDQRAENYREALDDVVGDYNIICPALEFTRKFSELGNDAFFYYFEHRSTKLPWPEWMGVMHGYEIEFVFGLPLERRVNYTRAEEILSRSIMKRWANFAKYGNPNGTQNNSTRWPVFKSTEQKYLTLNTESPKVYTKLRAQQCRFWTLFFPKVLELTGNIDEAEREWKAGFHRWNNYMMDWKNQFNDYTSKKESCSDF

HeLa [3] = assay: cells; conditions: Homo sapiens, 48 h
Description: Antiproliferative activity against human HeLa cells after 48 hrs by SRB assay

[4] = GPx-like activity of the compound assessed as half life for H2O2 reduction by measuring oxidation of PhSH to (PhS)2 at 50 uM measured for 180 secs by spectrophotometric analysis relative to control; format: functional
T47D [5] = assay: cells; conditions: Homo sapiens, 48 h
Description: Antiproliferative activity against human T47D cells after 48 hrs by SRB assay

Acetylcholinesterase [6] = target: T2, Acetylcholinesterase (Electrophorus electricus, UniProt O42275); assay: Mixed-type inhibition of electric eel AChE assessed as enzyme-inhibitor complex using p-nitrophenyl acetate as substrate by Lineweaver-Burk plot analysis
T2 sequence (O42275 whole entry): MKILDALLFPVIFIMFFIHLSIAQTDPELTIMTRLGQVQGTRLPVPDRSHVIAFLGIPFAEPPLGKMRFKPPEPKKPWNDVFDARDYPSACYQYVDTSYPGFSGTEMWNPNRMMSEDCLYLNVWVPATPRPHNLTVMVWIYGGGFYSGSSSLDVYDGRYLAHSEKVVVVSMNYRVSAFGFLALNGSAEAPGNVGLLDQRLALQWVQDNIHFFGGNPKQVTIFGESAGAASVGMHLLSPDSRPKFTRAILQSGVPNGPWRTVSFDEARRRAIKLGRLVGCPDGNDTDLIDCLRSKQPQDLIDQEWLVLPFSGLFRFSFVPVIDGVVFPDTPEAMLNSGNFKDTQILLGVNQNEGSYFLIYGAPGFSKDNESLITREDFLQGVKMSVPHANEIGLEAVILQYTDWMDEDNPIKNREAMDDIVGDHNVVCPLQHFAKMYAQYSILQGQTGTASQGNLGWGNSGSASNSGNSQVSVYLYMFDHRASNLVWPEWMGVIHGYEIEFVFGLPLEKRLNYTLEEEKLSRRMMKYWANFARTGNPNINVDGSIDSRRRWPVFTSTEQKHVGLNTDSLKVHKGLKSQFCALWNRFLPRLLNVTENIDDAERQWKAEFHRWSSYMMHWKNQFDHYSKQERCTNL

Cholinesterase [7] = target: T1, Cholinesterase; assay: Mixed-type inhibition of equine serum BuChE assessed as enzyme-substrate-inhibitor complex using p-nitrophenyl butyrate as substrate by Lineweaver-Burk plot analysis
[8] = Selectivity index, ratio of Ki for equine serum BuChE assessed as enzyme-substrate-inhibitor complex to Ki for electric eel AChE assessed as enzyme-substrate-inhibitor complex
[9] = GPx-like activity of the compound assessed as H2O2 reduction by measuring oxidation of PhSH to (PhS)2 at 50 uM measured for 180 secs by spectrophotometric analysis relative to control; format: functional
WiDr [10] = assay: cells; conditions: Homo sapiens, 48 h
Description: Antiproliferative activity against human WiDr cells after 48 hrs by SRB assay

SW1573 [11] = assay: cells; conditions: Homo sapiens, SW1573, 48 h
Description: Antiproliferative activity against human SW1573 cells after 48 hrs by SRB assay

HBL-100 [12] = assay: cells; conditions: Homo sapiens, HBL-100, 48 h
Description: Antiproliferative activity against human HBL100 cells after 48 hrs by SRB assay

A549 [13] = assay: cells; conditions: Homo sapiens, A549, 48 h
Description: Antiproliferative activity against human A549 cells after 48 hrs by SRB assay

Acetylcholinesterase [14] = target: T2, Acetylcholinesterase; assay: Mixed-type inhibition of electric eel AChE assessed as enzyme-substrate-inhibitor complex using p-nitrophenyl acetate as substrate by Lineweaver-Burk plot analysis
SW1573 [15] = assay: Potency index, ratio of 5-FU GI50 to compound GI50 for human SW1573 cells; format: functional
HeLa [16] = assay: Potency index, ratio of cisplatin GI50 to compound GI50 for human HeLa cells; format: functional
Acetylcholinesterase [17] = target: T2, Acetylcholinesterase; assay: Non-competitive inhibition of electric eel AChE assessed as enzyme-inhibitor complex using p-nitrophenyl acetate as substrate by Lineweaver-Burk plot analysis
HBL-100 [18] = assay: Potency index, ratio of cisplatin GI50 to compound GI50 for human HBL100 cells; format: functional
WiDr [19] = assay: Potency index, ratio of cisplatin GI50 to compound GI50 for human WiDr cells; format: functional
Acetylcholinesterase [20] = target: T2, Acetylcholinesterase; assay: Non-competitive inhibition of electric eel AChE assessed as enzyme-substrate-inhibitor complex using p-nitrophenyl acetate as substrate by Lineweaver-Burk plot analysis
SW1573 [21] = assay: Potency index, ratio of cisplatin GI50 to compound GI50 for human SW1573 cells; format: functional
in vitro = conditions: human, hTERT-BJ cells
Description: Antiproliferative activity against human hTERT-BJ cells after 48 hrs by SRB assay

HeLa [22] = assay: Potency index, ratio of 5-FU GI50 to compound GI50 for human HeLa cells; format: functional
T47D [23] = assay: Potency index, ratio of cisplatin GI50 to compound GI50 for human T47D cells; format: functional
T47D [24] = assay: Potency index, ratio of 5-FU GI50 to compound GI50 for human T47D cells; format: functional
WiDr [25] = assay: Potency index, ratio of 5-FU GI50 to compound GI50 for human WiDr cells; format: functional
HBL-100 [26] = assay: Potency index, ratio of 5-FU GI50 to compound GI50 for human HBL100 cells; format: functional
A549 [27] = assay: Potency index, ratio of cisplatin GI50 to compound GI50 for human A549 cells; format: functional
Acetylcholinesterase [28] = target: T2, Acetylcholinesterase; assay: Competitive inhibition of electric eel AChE assessed as enzyme-inhibitor complex using p-nitrophenyl acetate as substrate by Lineweaver-Burk plot analysis
Cholinesterase [29] = target: T1, Cholinesterase
Description: Competitive inhibition of equine serum BuChE assessed as enzyme-inhibitor complex using p-nitrophenyl butyrate as substrate by Lineweaver-Burk plot analysis

[30] = target: Amyloid-beta precursor protein (Homo sapiens) (UniProt P05067); assay: Inhibition of amyloid beta (1 to 42) (unknown origin) self aggregation at 50 uM relative to control
Sequence of Amyloid-beta precursor protein (Homo sapiens) (P05067 whole entry): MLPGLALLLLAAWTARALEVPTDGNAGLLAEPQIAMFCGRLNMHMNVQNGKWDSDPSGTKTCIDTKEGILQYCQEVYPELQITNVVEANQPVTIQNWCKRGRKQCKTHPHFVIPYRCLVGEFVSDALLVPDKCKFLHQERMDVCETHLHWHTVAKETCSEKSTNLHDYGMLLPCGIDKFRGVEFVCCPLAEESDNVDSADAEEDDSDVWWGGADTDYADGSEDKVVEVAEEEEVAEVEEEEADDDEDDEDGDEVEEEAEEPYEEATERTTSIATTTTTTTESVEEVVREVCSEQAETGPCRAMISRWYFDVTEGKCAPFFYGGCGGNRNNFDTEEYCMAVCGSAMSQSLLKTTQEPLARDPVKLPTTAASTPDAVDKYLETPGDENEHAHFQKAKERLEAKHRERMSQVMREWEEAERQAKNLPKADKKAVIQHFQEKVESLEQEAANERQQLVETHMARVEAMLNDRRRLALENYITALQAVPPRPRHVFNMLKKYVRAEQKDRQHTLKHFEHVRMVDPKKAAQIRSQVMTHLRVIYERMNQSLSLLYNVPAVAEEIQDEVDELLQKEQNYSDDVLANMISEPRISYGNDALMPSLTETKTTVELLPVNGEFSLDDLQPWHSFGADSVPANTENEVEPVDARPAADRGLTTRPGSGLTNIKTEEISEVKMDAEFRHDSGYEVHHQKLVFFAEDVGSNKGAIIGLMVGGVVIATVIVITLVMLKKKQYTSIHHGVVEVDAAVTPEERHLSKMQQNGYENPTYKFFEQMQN

Acetylcholinesterase [31] = target: T3, Acetylcholinesterase (Homo sapiens, UniProt P22303); assay: Potency index, ratio of cystamine-tacrine IC50 to compound IC50 for human AChE
T3 sequence (P22303 whole entry): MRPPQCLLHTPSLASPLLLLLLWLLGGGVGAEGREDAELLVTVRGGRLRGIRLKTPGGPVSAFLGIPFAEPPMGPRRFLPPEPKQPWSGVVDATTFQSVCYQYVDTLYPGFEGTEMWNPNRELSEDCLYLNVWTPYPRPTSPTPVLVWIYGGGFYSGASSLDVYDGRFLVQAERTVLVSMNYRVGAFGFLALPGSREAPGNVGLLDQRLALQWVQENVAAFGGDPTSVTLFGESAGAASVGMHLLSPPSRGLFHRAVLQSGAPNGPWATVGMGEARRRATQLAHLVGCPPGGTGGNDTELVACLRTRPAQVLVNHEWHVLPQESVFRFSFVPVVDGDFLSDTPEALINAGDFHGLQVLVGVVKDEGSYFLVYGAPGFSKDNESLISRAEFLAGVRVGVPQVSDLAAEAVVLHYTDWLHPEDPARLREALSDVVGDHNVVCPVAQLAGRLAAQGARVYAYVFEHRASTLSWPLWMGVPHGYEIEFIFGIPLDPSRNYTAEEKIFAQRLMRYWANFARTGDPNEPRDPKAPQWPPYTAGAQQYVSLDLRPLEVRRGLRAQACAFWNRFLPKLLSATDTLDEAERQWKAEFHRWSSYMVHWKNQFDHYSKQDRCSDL

Acetylcholinesterase [32] = target: T3, Acetylcholinesterase; assay: Inhibition of human serum AChE using acetylthiocholine iodide as substrate preincubated for 20 mins followed by substrate addition measured after 5 mins by Ellman's method
[33] = Selectivity index, ratio of GI50 for human hTERT-BJ cells to GI50 for human WiDr cells; format: toxicity; conditions: hTERT-BJ cells versus WiDr cells, read-out: RatioGI50
N2a = assay: Cytotoxicity against mouse N2A cells assessed as reduction in cell viability at 50 uM after 24 hrs by MTT assay; format: cell-based
[34] = target: Amyloid-beta precursor protein (Homo sapiens) (UniProt P05067); assay: Inhibition of amyloid beta (1 to 42) (unknown origin) self aggregation at 50 uM after 24 hrs by ThT-based fluorometric method relative to control
Cholinesterase [35] = target: T1, Cholinesterase; assay: Non-competitive inhibition of equine serum BuChE assessed as enzyme-inhibitor complex using p-nitrophenyl butyrate as substrate by Lineweaver-Burk plot analysis
Cholinesterase [36] = target: T1, Cholinesterase; assay: Non-competitive inhibition of equine serum BuChE assessed as enzyme-substrate-inhibitor complex using p-nitrophenyl butyrate as substrate by Lineweaver-Burk plot analysis
[37] = Potency index, ratio of compound velocity to ebselen velocity for GPx-like activity assessed as H2O2 reduction by measuring oxidation of PhSH to (PhS)2; format: functional
[38] = Potency index, ratio of compound velocity to diphenyl diselenide velocity for GPx-like activity assessed as H2O2 reduction by measuring oxidation of PhSH to (PhS)2; format: functional

Structure (SMILES) | Activity [1] [µM/min] | Ki (Cholinesterase [2]) [nM] | GI50 (HeLa [3]) [nM] | T1/2 [4] [h] | GI50 (T47D [5]) [nM] | Ki (Cholinesterase [7]) [nM] | Ratio Ki [8] | fold change (FC) [9] | GI50 (WiDr [10]) [nM] | GI50 (SW1573 [11]) [nM] | GI50 (HBL-100 [12]) [nM] | GI50 (A549 [13]) [nM] | GI50 at 48 h (in vitro) [nM] | other results
O=C(C[Se]c1ccccc1)Nc1c2c(nc3ccccc13)CCCC2 | 3.6 | 518 | 32000 | 11.6 | 53000 | 1710 | 0.5 | 0.5 | > 100000 | > 100000 | 35000 | 37000 |  | Ki (Acetylcholinesterase [6]): 8420 nM; Ki (Acetylcholinesterase [14]): 3540 nM
c1ccc2c(NCCCCCCSSCCCCCCNc3c4c(nc5ccccc35)CCCC4)c3c(nc2c1)CCCC3 | 32.8 | 243 | 330 | 1.27 | 370 | 70 | 4.7 | 4.2 | 200 | 240 | 990 | 1100 | 220 | RatioGI50 (SW1573 [15]): <=306; RatioGI50 (HeLa [16]): <=162; Ki (Acetylcholinesterase [17]): 14.8 nM; RatioGI50 (HBL-100 [18]): <=162; RatioGI50 (WiDr [19]): <=162; Ki (Acetylcholinesterase [20]): 14.8 nM; RatioGI50 (SW1573 [21]): <=162; RatioGI50 (HeLa [22]): <=306; RatioGI50 (T47D [23]): <=162; RatioGI50 (T47D [24]): <=306; RatioGI50 (WiDr [25]): <=306; RatioGI50 (HBL-100 [26]): <=306; RatioGI50 (A549 [27]): <=162
N#CSCCCCCCNc1c2c(nc3ccccc13)CCCC2 | 21.6 | 252 | 8100 | 1.93 | 5500 | 673 |  | 2.8 | 2400 | 5100 | 11000 | 8300 |  | Ki (Acetylcholinesterase [28]): 18.5 nM
N#C[Se]CCCCCNc1c2c(nc3ccccc13)CCCC2 | 22.4 |  | 370 | 1.86 | 700 |  |  | 2.9 | 650 | 650 | 1100 | 1200 | 360 | Ki (Acetylcholinesterase [28]): 34.5 nM; Ki (Cholinesterase [29]): 206 nM
c1ccc([Se][Se]c2ccccc2)cc1 | 14.8 |  |  | 2.81 |  |  |  | 1.9 |  |  |  |  |  | 
O=c1c2ccccc2[se]n1-c1ccccc1 | 2 |  |  | 20.8 |  |  |  | 0.3 |  |  |  |  |  | 
O=c1[nH]cc(F)c(=O)[nH]1 [FLUOROURACIL] |  |  | 15000 |  | 47000 |  |  |  | 49000 | 4300 | 5500 |  | 5500 | 
c1ccc2c(NCCSSCCNc3c4c(nc5ccccc35)CCCC4)c3c(nc2c1)CCCC3 |  |  |  |  |  |  |  |  |  |  |  |  |  | inhibition [30]: 66.3%
c1ccc2c(NCCCCCSSCCCCCNc3c4c(nc5ccccc35)CCCC4)c3c(nc2c1)CCCC3 | 35.5 | 166 | 1000 | 1.17 | 950 | 422 | 74 | 4.6 | 300 | 290 | 1200 | 1400 | 1400 | RatioGI50 (SW1573 [15]): <=306; RatioGI50 (HeLa [16]): <=162; Ratio IC50 (Acetylcholinesterase [31]): 3; RatioGI50 (HBL-100 [18]): <=162; Ki (Acetylcholinesterase [6]): 3.1 nM; RatioGI50 (WiDr [19]): <=162; IC50 (Acetylcholinesterase [32]): 1.62 nM; RatioGI50 (SW1573 [21]): <=162; RatioGI50 (HeLa [22]): <=306; RatioGI50 (T47D [23]): <=162; selectivity ratio [33]: ≤ 4.7; RatioGI50 (T47D [24]): <=306; RatioGI50 (WiDr [25]): <=306; RatioGI50 (HBL-100 [26]): <=306; Activity (N2a): Non-Toxic; inhibition [34]: 61.8%; Ki (Acetylcholinesterase [14]): 5.7 nM; RatioGI50 (A549 [27]): <=162
c1ccc2c(NCCCCCCCNc3c4c(nc5ccccc35)CCCC4)c3c(nc2c1)CCCC3 |  |  |  |  |  |  |  |  |  |  |  |  |  | inhibition [30]: 71.1%
Cc1ccc(NC(=[Se])NCCCCCCNc2c3c(nc4ccccc24)CCCC3)cc1 | 29.6 |  | 4100 | 1.41 | 3000 |  |  | 3.8 | 2200 | 3700 | 8100 | 5500 |  | Ki (Cholinesterase [35]): 10.7 nM; Ki (Acetylcholinesterase [28]): 7.6 nM; Ki (Cholinesterase [36]): 10.7 nM
COc1ccc(NC(=[Se])NCCCCCCNc2c3c(nc4ccccc24)CCCC3)cc1 | 82.9 |  |  | 0.503 |  |  | 1.1 | 10.6 |  |  |  |  |  | Ratio [37]: 41.4; Ki (Acetylcholinesterase [17]): 26.6 nM; Ki (Cholinesterase [35]): 28.6 nM; Ki (Cholinesterase [36]): 28.6 nM; Ki (Acetylcholinesterase [20]): 26.6 nM; Ratio [38]: 5.6
N#CSCCCCCNc1c2c(nc3ccccc13)CCCC2 | 23.1 |  | 11000 | 1.8 | 8300 |  |  | 3 | 4100 | 15000 | 15000 | 14000 |  | Ki (Acetylcholinesterase [17]): 50.1 nM; Ki (Cholinesterase [29]): 228 nM; Ki (Acetylcholinesterase [20]): 50.1 nM
